US7816331B2, “Substituted indazole-O-glucosides” (Janssen Pharmaceutica NV, priority 2003, dated 2010)

Tests used:
[1] = molecular target: T1, human SGLT1 (Homo sapiens, UniProt P13866); test: Cell-based assay for sodium-dependent glucose transport (14C-AMG uptake), CHOK-SGLT1; details: 10 uM compound, CHO-K1 cells stably expressing human SGLT1, Na-dependent 14C-AMG uptake; for inhibition at 10 µM: read-out: CHOK-SGLT1 % Inh (10 uM)
T1 construct: expressed in transfected cells
T1 sequence (P13866 1-664): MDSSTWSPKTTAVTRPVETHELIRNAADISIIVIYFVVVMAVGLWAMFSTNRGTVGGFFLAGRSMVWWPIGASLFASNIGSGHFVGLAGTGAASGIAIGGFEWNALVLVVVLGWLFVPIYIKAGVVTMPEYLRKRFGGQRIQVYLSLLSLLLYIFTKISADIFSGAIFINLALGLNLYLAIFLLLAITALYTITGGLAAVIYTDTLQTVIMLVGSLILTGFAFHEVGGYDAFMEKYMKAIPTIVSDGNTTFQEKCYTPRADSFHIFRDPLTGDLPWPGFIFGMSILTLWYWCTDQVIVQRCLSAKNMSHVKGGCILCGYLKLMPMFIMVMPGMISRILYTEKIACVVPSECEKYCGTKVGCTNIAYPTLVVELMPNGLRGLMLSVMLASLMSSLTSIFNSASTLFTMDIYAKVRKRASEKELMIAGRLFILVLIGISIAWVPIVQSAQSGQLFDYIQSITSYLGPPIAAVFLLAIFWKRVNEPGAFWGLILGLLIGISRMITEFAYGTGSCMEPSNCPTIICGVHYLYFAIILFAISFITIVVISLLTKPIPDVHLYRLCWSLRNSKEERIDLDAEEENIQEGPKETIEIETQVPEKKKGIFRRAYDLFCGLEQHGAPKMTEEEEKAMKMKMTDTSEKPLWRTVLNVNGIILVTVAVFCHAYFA
Protocol: (§1) Cloning of the human SGLT1 and human SGLT2 cDNAs and construction of the mammalian expression vector: The human SGLT1 cDNA (Genbank M24847) was cloned from human small intestine. Human SGLT2 cDNA (Genbank M95549) was cloned from human kidney. Both full cDNAs were subcloned into pcDNA and sequenced to verify the integrity of the construct. Generation of CHO-K1 cells stably expressing human SGLT1 or human SGLT2: Transfection of CHO-K1 cells was performed using DMRIE-C reagent (Life Technologies, Gaithersburg, Md.). Transfectants were then selected in the presence of the antibiotic G418 (Gibco-BRL, Grand Island, N.Y.) at 400 μg/ml. Individual clones were then characterized using the functional assay described below. Cell-based assay for sodium-dependent glucose transport: Cell lines stably expressing human SGLT1 or SGLT2 were then used for functional analysis of Na^+-dependent glucose uptake. Briefly, cells were plated at a density of 65,000 cells per well in a 96-well plate and allowed to grow for 48 hours. Cells were subsequently washed one time with Assay Buffer (50 mM HEPES pH 7.4, 20 mM Tris, 5 mM KCl, 1 mM MgCl2, 1 mM CaCl2 and 137 mM NaCl) and treated with compound in the absence or presence of NaCl for 15 minutes. Cells were then labeled with ^14C-α-methylglucopyranoside (AMG, Sigma, St. Louis, Mo.), a non-metabolizable glucose analog specific for sodium-dependent glucose transporters as previously described (Peng, H. and Lever J. E. Post-transcriptional regulation of Na^+/glucose cotransporter (SGLT1) gene expression in LLC-PK1 cells. J Biol Chem 1995; 270:20536-20542.). After 2 hours the labelled cells were washed three times with ice-cold PBS. After aspiration, cells were solubilized using Microscint 20 (Packard, Meriden, Conn.) and Na-dependent ^14C-AMG uptake was quantified by measuring radioactivity. Plates were counted in a TopCount (Packard, Meriden, Conn.). Results are reported as the % inhibition or IC50 value from a representative experiment. Variability for the functional assay was typically within 20%.

[2] = molecular target: T2, human SGLT2 (Homo sapiens, UniProt P31639); test: Cell-based assay for sodium-dependent glucose transport (14C-AMG uptake), CHOK-SGLT2; details: for inhibition at 10 µM: CHO-K1, read-out: CHOK-SGLT2 % Inh. @ 10 μM; for IC50: CHO-K1 cells stably expressing human SGLT2, Na-dependent 14C-AMG uptake, read-out: CHOK-SGLT2 IC50 (uM) ± SEM
T2 construct: expressed in transfected cells
T2 sequence (P31639 1-672): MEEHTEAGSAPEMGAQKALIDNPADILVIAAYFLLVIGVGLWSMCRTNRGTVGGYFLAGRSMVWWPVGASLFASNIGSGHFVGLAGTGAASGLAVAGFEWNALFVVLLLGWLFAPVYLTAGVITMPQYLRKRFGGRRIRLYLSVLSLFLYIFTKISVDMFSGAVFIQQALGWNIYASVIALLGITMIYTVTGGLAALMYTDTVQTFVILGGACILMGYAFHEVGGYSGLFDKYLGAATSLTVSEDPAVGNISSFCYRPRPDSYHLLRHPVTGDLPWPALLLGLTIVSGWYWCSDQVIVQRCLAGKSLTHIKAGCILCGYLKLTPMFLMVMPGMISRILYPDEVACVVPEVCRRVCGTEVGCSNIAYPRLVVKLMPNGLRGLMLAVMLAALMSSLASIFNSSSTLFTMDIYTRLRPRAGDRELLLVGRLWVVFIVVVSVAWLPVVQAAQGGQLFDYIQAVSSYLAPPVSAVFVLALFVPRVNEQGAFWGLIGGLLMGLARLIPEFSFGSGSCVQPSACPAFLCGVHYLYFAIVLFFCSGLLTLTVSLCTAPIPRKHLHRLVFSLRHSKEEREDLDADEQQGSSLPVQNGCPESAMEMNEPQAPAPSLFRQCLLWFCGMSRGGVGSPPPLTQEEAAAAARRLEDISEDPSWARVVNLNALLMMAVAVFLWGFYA
Protocol: as §1, with “experiment.” for “experiment. Variability for the functional assay was typically within 20%.”

Compound	inhibition at 10 µM [1] [%]	inhibition at 10 µM [2] [%]	CHOK-SGLT1 % Inh (10 uM) [1]	IC50 [2] [µM]
Cc1cc(OC2OC(CO)C(O)C(O)C2O)c2c(CCc3ccc(Cl)cc3)n[nH]c2c1 [Example 11, 2-{3-[2-(4-Chloro-phenyl)-ethyl]-6-methyl-1H-indazol-4-yloxy}-β-D-glucopyranoside]	12	66	–	–
Cc1cc(OC2OC(CO)C(O)C(O)C2O)c2c(CCc3ccc(NS(C)(=O)=O)cc3)n[nH]c2c1 [Example 16, 2-{3-[2-(4-Methanesulfonylamino-phenyl)-ethyl]-6-methyl-1H-indazol-4-yloxy}β-D-glucopyranoside]	–	42	inactive	–
COc1ccc(SCc2n[nH]c3cccc(OC4OC(CO)C(O)C(O)C4O)c23)cc1 [Example 20, 2-[3-(4-Methoxy-phenylsulfanylmethyl)-1H-indazol-4-yloxy]-β-D-glucopyranoside]	38	64	–	–
COC1CCc2cc(CCc3n[nH]c4cc(C)cc(OC5OC(CO)C(O)C(O)C5O)c34)ccc2C1 [Example 7, 2-{3-[2-(6-Methoxy-5,6,7,8-tetrahydro-naphthalen-2-yl)-ethyl]-6-methyl-1H-indazol-4-yloxy}β-D-glucopyranoside]	–	43	inactive	–
CC(=O)OC[C@H]1O[C@@H](Oc2cc(C)cc3[nH]nc(CCc4ccc5c(c4)CCO5)c23)[C@H](O)[C@@H](O)[C@@H]1O [Example 2, 2-{3-[2-(2,3-Dihydro-benzofuran-5-yl)-ethyl]-6-methyl-1H-indazol-4-yloxy}-6-O— acetyl-β-D-glucopyranoside]	14	69	–	–
Cc1cc(OC2OC(CO)C(O)C(O)C2O)c2c(CCC3CCCCC3)n[nH]c2c1 [Example 17, 2-[3-(2-Cyclohexyl-ethyl)-6-methyl-1H-indazol-4-yloxy]-β-D-glucopyranoside]	–	67	inactive	–
Cc1cc(OC2OC(CO)C(O)C(O)C2O)c2c(CCc3ccc4ccccc4c3)n[nH]c2c1 [Example 4, 2-[6-Methyl-3-(2-naphthalen-2-yl-ethyl)-1H-indazol-4-yloxy]-β-D-glucopyranoside]	18	–	–	1.95 ± 0.816
COc1ccc(CCc2n[nH]c3cc(C)cc(OC4OC(CO)C(O)C(O)C4O)c23)cc1 [Example 9, 2-{3-[2-(4-Methoxy-phenyl)-ethyl]-6-methyl-1H-indazol-4-yloxy}β-D-glucopyranoside]	11	–	–	3.05 ± 0.319
OC[C@H]1O[C@@H](Oc2cccc3[nH]nc(CCc4ccc5occc5c4)c23)[C@H](O)[C@@H](O)[C@@H]1O [Example 18]	43	–	–	1.2 ± 0.071
Cc1cc(OC2OC(CO)C(O)C(O)C2O)c2c(CCc3ccc4c(c3)CCO4)nn(C)c2c1 [Example 15, 2-{3-[2-(2,3-Dihydro-benzofuran-5-yl)-ethyl]-1,6-dimethyl-1H-indazol-4-yloxy}-β-D-glucopyranoside]	47	–	–	0.754 ± 0.069
Cc1cc(O[C@@H]2OC(CO)[C@@H](O)[C@H](O)[C@H]2O)c2c(CCc3ccc4occc4c3)n[nH]c2c1 (stereo partly drawn) [Example 13, 2-[3-(2-Benzofuran-5-yl-ethyl)-6-methyl-1H-indazol-4-yloxy]-β-D-glucopyranoside]	52	–	–	–
COc1ccc2cc(CCc3n[nH]c4cc(C)cc(OC5OC(CO)C(O)C(O)C5O)c34)ccc2c1 [Example 6, 2-{3-[2-(6-Methoxy-naphthalen-2-yl)-ethyl]-6-methyl-1H-indazol-4-yloxy}-β-D-glucopyranoside]	7	–	–	1
Cc1cc(O[C@@H]2O[C@H](CO)[C@@H](O)[C@H](O)[C@H]2O)c2c(Cc3ccc4c(c3)CCO4)n[nH]c2c1 [Example 22, 2-[3-(2,3-Dihydro-benzofuran-5-ylmethyl)-6-methyl-1H-indazol-4-yloxy]-β-D-glucopyranoside]	–	40	inactive	–
CCc1cc(O[C@@H]2O[C@H](CO)[C@@H](O)[C@H](O)[C@H]2O)c2c(CCc3ccc4c(c3)CCO4)n[nH]c2c1 [Example 19, 2-{3-[2-(2,3-Dihydro-benzofuran-5-yl)-ethyl]-6-ethyl-1H-indazol-4-yloxy}-D-glucopyranoside]	–	–	inactive	0.532 ± 0.047
Cc1cc(OC2OC(CO)C(O)C(O)C2O)c2c(CCc3ccc(C(F)(F)F)cc3)n[nH]c2c1 [Example 12, 2-{3-[2-(4-Trifluoromethyl-phenyl)-ethyl]-6-methyl-1H-indazol-4-yloxy}β-D-glucopyranoside]	–	36	inactive	–
CCOc1ccc(CCc2n[nH]c3cc(C)cc(OC4OC(CO)C(O)C(O)C4O)c23)cc1 [Example 10, 2-{3-[2-(4-Ethoxy-phenyl)-ethyl]-6-methyl-1H-indazol-4-yloxy}β-D-glucopyranoside]	5	–	–	2 ± 0.071
